One may read the IC50 as the concentration needed to halve the response being measured. As a reminder, the melting point is the temperature of the solid-liquid transition.

Our source for the IC50 and melting point values is patent US8889696B2, “Substituted pyrido[2,3-d]pyrimidin-7(8H)-ones and therapeutic uses thereof” (Temple University—Of The Commonwealth System Of Higher …, priority 2009, dated 2014).

The test system of one data set is DU145 (prostate cancer). As to the kind of experiment: Effect on tumor cell lines (Latham assay), DU145. Format: cell-based. The conditions noted are these: Homo sapiens, DU-145; DU145 cells, examined 96 hours after treatment; read-out: Potencies (IC50) DU 145. The protocol:
(§1) The plated cells were treated 24 hours later with a compound of the invention dissolved in DMSO at multiple concentrations ranging from 0.01 μM to 100 μM. […] When necessary, the total number of viable cells was determined by trypsinizing the wells and counting the number of viable cells, as determined by trypan blue exclusion, using a hemacytometer.

The test system of data set [1] is K562 (chronic myelogenous leukemia). As to the kind of experiment: Effect on tumor cell lines (Latham assay), K562. Format: cell-based. Conditions: Homo sapiens; K562 cells, examined 96 hours after treatment; read-out: Potencies (IC50) K 562. The method, then:
as §1

Molecules are shown by their SMILES.

In turn, `Cn1c(=O)c(S(=O)(=O)c2ccc(Cl)cc2)cc2cnc(Nc3ccc(Cl)cc3)nc21` [Example 3, 2-(4-chlorophenylamino)-6-(4-chlorophenylsulfonyl)-8-methylpyrido[2,3-d]pyrimidin-7(8H)-one] registered a melting point above 300 °C. The IC50 in the data set on DU145 (prostate cancer) was 10 to 25 µM. For the same compound, in data set [1], the IC50 was 10 to 25 µM.
With `COc1ccc(Nc2ncc3cc(S(=O)(=O)c4ccc(Cl)cc4)c(=O)n(C)c3n2)cc1` [Example 4, 6-(4-chlorophenylsulfonyl)-2-(4-methoxyphenylamino)-8-methylpyrido[2,3-d]pyrimidin-7(8H)-one], the melting point lay in the range of 286 to 290 °C. The half-maximal inhibitory concentration (IC50) in the data set on DU145 (prostate cancer) lay within 25 to 50 µM. The IC50 in data set [1] is 10 to 25 µM.
As for `Cn1c(=O)c(S(=O)(=O)c2ccc(Cl)cc2)cc2cnc(Nc3cnc4ccccc4c3)nc21` [Example 5, 6-(4-chlorophenylsulfonyl)-8-methyl-2-(quinolin-3-ylamino)pyrido[2,3-d]pyrimidin-7(8H)-one], the melting point lay in the range of 304 to 306 °C. Also, in the data set with DU145 (prostate cancer), the 50% inhibitory concentration (IC50) was 10 to 25 µM. Also, the half-maximal inhibitory concentration (IC50) in data set [1] was 10 to 25 µM.
The compound `Cn1c(=O)c(S(=O)(=O)c2ccc(Cl)cc2)cc2cnc(Nc3ccc4[nH]ccc4c3)nc21` [Example 6, 2-(1H-indol-5-ylamino)-6-(4-chlorophenylsulfonyl)-8-methylpyrido[2,3-d]pyrimidin-7(8H)-one] yielded a melting point of 316 to 320 °C. For the same compound, in the data set with DU145 (prostate cancer), the IC50 is below 1 µM. Further, the 50% inhibitory concentration (IC50) in data set [1] is below 1 µM.
The compound `Cn1c(=O)c(S(=O)(=O)c2ccc(Cl)cc2)cc2cnc(NCCCN3CCOCC3)nc21` [Example 7, 2-(3-morpholinopropylamino)-6-(4-chlorophenylsulfonyl)-8-methylpyrido[2,3-d]pyrimidin-7(8H)-one] yielded a melting point of 160 to 164 °C. Moreover, the IC50 with DU145 (prostate cancer) was 25 to 50 µM. Besides, the 50% inhibitory concentration (IC50) in data set [1] was 25 to 50 µM.
With `CC(=O)N1CCN(c2ncc3cc(S(=O)(=O)c4ccc(Cl)cc4)c(=O)n(C)c3n2)CC1` [Example 8, 6-(4-chlorophenylsulfonyl)-2-(4-acetylpiperazin-1-yl)-8-methylpyrido[2,3-d]pyrimidin-7(8H)-one], the melting point was 264 to 268 °C. Besides, the half-maximal inhibitory concentration (IC50) in the data set on DU145 (prostate cancer) was 50 to 100 µM. For the same compound, in data set [1], the IC50 was in the range of 50 to 100 µM.
In turn, `CN1CCN(CCNc2ncc3cc(S(=O)(=O)c4ccc(Cl)cc4)c(=O)n(C)c3n2)CC1` [Example 9, 2-(2-(4-methylpiperazin-1-yl)ethylamino)-6-(4-chlorophenylsulfonyl)-8-methylpyrido[2,3-d]pyrimidin-7(8H)-one] showed a melting point of 176 to 180 °C. In addition, the IC50 in the data set with DU145 (prostate cancer) lay within 25 to 50 µM. The IC50 in data set [1] was 10 to 25 µM.
The like results for `Cn1c(=O)c(S(=O)(=O)c2ccc(F)cc2)cc2cnc(Nc3cccc4[nH]ccc34)nc21` [Example 10, 2-(1H-indol-4-ylamino)-6-(4-fluorophenylsulfonyl)-8-methylpyrido[2,3-d]pyrimidin-7(8H)-one] were, in that order, above 350 °C, below 1 µM and below 1 µM.
As for `Cn1c(=O)c(S(=O)(=O)c2ccc(F)cc2)cc2cnc(Nc3ccc4[nH]ccc4c3)nc21` [Example 11], the melting point was 278 to 282 °C. In the data set with DU145 (prostate cancer), the IC50 was below 1 µM. The IC50 in data set [1] is below 1 µM.
As to `Cn1c(=O)c(S(=O)(=O)c2ccc(F)cc2)cc2cnc(Nc3ccc4[nH]ncc4c3)nc21` [Example 13, 2-(1H-indazol-5-ylamino)-6-(4-fluorophenylsulfonyl)-8-methylpyrido[2,3-d]pyrimidin-7(8H)-one], the melting point lay within 160 to 165 °C. For the same compound, the IC50 with DU145 (prostate cancer) was 1 to 10 µM. Also, the half-maximal inhibitory concentration (IC50) in data set [1] lay in the range of 1 to 10 µM.
Compound `Cc1ccc(S(=O)(=O)c2cc3cnc(Nc4cccc5cccnc45)nc3n(C)c2=O)cc1` [Example 14, 8-methyl-2-(quinolin-8-ylamino)-6-tosylpyrido[2,3-d]pyrimidin-7(8H)-one] came in with a melting point above 350 °C. In the data set on DU145 (prostate cancer), the IC50 is 10 to 25 µM. Moreover, the half-inhibitory concentration (IC50) in data set [1] lay in the range of 10 to 25 µM.
As to `Cn1c(=O)c(S(=O)(=O)c2ccc(F)c(Cl)c2)cc2cnc(Nc3ccc4c(c3)CC(=O)N4)nc21` [Example 36, 2-(2-oxoindolin-5-ylamino)-6-(3-chloro-4-fluorophenylsulfonyl)-8-methylpyrido[2,3-d]pyrimidin-7(8H)-one], the half-inhibitory concentration (IC50) (in the data set on DU145 (prostate cancer); in data set [1]) was 10 to 25 µM in each case.
As for `Cn1c(=O)c(S(=O)(=O)c2ccc(F)c(Cl)c2)cc2cnc(Nc3ccc4[nH]ncc4c3)nc21` [Example 38, 2-(1H-indazol-5-ylamino)-6-(3-chloro-4-fluorophenylsulfonyl)-8-methylpyrido[2,3-d]pyrimidin-7(8H)-one], the concentration for half-maximal inhibition (IC50) (with DU145 (prostate cancer); in data set [1]) was 10 to 25 µM in each case.
For the compound `Cn1c(=O)c(S(=O)(=O)c2ccc(F)cc2F)cc2cnc(Nc3ccc4c(c3)CC(=O)N4)nc21` [Example 41, 6-(2,4-difluorophenylsulfonyl)-2-(2-oxoindolin-5-ylamino)-8-methylpyrido[2,3-d]pyrimidin-7(8H)-one], the half-inhibitory concentration (IC50) (in the data set on DU145 (prostate cancer); in data set [1]) was 50 to 100 µM each time.
With `Cn1c(=O)c(S(=O)(=O)c2ccc(F)cc2F)cc2cnc(NCCN3CCOCC3)nc21` [Example 42, 6-(2,4-difluorophenylsulfonyl)-2-(2-morpholinoethylamino)-8-methylpyrido[2,3-d]pyrimidin-7(8H)-one], the half-maximal inhibitory concentration (IC50) (with DU145 (prostate cancer); in data set [1]) was 50 to 100 µM throughout.
Regarding `Cn1c(=O)c(S(=O)(=O)c2ccc(O)cc2)cc2cnc(Nc3ccc4[nH]ccc4c3)nc21` [Example 43, 2-(1H-indol-5-ylamino)-6-(4-hydroxyphenylsulfonyl)-8-methylpyrido[2,3-d]pyrimidin-7(8H)-one], the IC50 (with DU145 (prostate cancer); in data set [1]) was below 1 µM throughout.
Regarding `O=c1[nH]c2nc(Nc3ccc4[nH]ccc4c3)ncc2cc1S(=O)(=O)c1ccc(F)c(Cl)c1` [Example 46, 2-(1H-indol-5-ylamino)-6-(3-chloro-4-fluorophenylsulfonyl)pyrido[2,3-d]pyrimidin-7(8H)-one], the IC50 in the data set with DU145 (prostate cancer) lay in the range of 50 to 100 µM; in data set [1], 10 to 25 µM.
The like results for `CN1CCN(c2ccc(Nc3ncc4cc(S(=O)(=O)c5ccc(Cl)cc5)c(=O)n(C5CCCC5)c4n3)cc2)CC1` [Example 58, 2-(4-(4-methylpiperazin-1-yl)phenylamine)-6-(4-chlorophenylsulfonyl)-8-cyclopentylpyrido[2,3-d]pyrimidin-7(8H)-one] were, in that order, 10 to 25 µM and 1 to 10 µM.
On the same counts, the results for `C[S+]([O-])c1ncc2cc(S(=O)(=O)c3ccc(Cl)cc3)c(=O)n(C3CCCC3)c2n1` (centres unmarked) [Example 59, 6-(4-chlorophenylsulfonyl)-8-cyclopentyl-2-(methylsulfinyl)pyrido[2,3-d]pyrimidin-7(8H)-one] are 10 to 25 µM and 1 to 10 µM.
For `CN1CCN(c2ccc(Nc3ncc4cc(S(=O)(=O)c5ccccc5)c(=O)n(C5CCCC5)c4n3)cc2)CC1` [Example 64, 2-(4-(4-methylpiperazin-1-yl)phenylamino)-8-cyclopentyl-6-(phenylsulfonyl)pyrido[2,3-d]pyrimidin-7(8H)-one], the figures for the IC50 (with DU145 (prostate cancer); in data set [1]) were below 1 µM and 1 to 10 µM, respectively.
The like results for `C[S+]([O-])c1ncc2cc(S(=O)(=O)c3ccccc3)c(=O)n(C3CCCC3)c2n1` (centres unmarked) [Example 66, 8-cyclopentyl-2-(methylsulfinyl)-6-(phenylsulfonyl)pyrido[2,3-d]pyrimidin-7(8H)-one] were, in that order, 50 to 100 µM and 10 to 25 µM.
